The source of these data is ChEMBL document CHEMBL1128627, “Photoactivatable analogues of a Substance P non-peptidic antagonist, for probing the antagonist binding site of the NK1 receptor” (Bioorg Med Chem Lett, 1995).

The target of this test is Substance-P receptor (Homo sapiens, UniProt P25103). Put plainly: In vitro binding affinity against human NK1 receptor expressed in CHO cells using [3H]-substance P as radioligand. It counts as cell-based.
Chain of Substance-P receptor (P25103 whole entry): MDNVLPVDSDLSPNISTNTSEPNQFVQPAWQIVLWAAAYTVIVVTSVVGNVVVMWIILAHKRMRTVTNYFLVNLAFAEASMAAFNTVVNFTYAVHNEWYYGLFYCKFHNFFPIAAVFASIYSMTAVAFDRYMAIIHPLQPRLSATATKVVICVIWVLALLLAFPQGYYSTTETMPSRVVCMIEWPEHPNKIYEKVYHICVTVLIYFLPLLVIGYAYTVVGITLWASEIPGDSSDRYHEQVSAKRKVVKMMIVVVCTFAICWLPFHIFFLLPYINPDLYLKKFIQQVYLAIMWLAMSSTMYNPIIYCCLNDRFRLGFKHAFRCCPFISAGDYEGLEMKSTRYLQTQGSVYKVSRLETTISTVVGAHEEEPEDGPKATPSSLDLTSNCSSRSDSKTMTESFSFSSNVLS

As usually defined, the Ki is the equilibrium dissociation constant of an inhibitor or competing ligand from its target. `COc1ccc(C(=O)c2ccccc2)cc1CN[C@H]1CCCN[C@H]1c1ccccc1`: affinity was put at a Ki of 398 pM.

As to `COc1ccc(C2(C(F)(F)F)N=N2)cc1CN[C@H]1CCCN[C@H]1c1ccccc1`, the Ki is 794 pM.
